biological target: T1, Human immunodeficiency virus type 1 protease (Human immunodeficiency virus 1, UniProt Q72874); experiment: Concentration required to in inhibit HIV-1 protease by 50%

SMILES	IC50
C=CCC1OC[C@H](Cc2ccccc2)N(C[C@H](O)CN(CC2CCCC2)S(=O)(=O)c2ccc(OC)cc2)C1=O (stereo not given in full)	2 nM
COc1ccc(S(=O)(=O)N(CC2CCCC2)C[C@@H](O)CN2C(=O)C(Cc3ccccc3)OC[C@@H]2Cc2ccccc2)cc1 (stereo not given in full)	30 nM

biological target: T1, Human immunodeficiency virus type 1 protease; experiment: Potency to inhibit HIV-1 protease

SMILES	Ki
O=C(NCCN1CCOCC1)c1cccc(C[C@H]2C[C@H](Cc3ccccc3)N(C[C@@H](O)C[C@@H](Cc3ccccc3)C(=O)N[C@@H]3c4ccccc4C[C@H]3O)C2=O)c1	0.15 nM
O=C(NCCOCCO)c1cccc(C[C@H]2C[C@H](Cc3ccccc3)N(C[C@@H](O)C[C@@H](Cc3ccccc3)C(=O)N[C@@H]3c4ccccc4C[C@H]3O)C2=O)c1	0.24 nM
Nc1ccc(CC2C[C@H](Cc3ccccc3)N(C[C@@H](O)C[C@@H](Cc3ccccc3)C(=O)NC3c4ccccc4C[C@H]3O)C2=O)cc1 (stereo not given in full)	2.3 nM
CCNC(=O)Nc1cccc(C[C@H]2C[C@H](Cc3ccccc3)N(C[C@@H](O)C[C@@H](Cc3ccccc3)C(=O)NC3c4ccccc4C[C@H]3O)C2=O)c1 (stereo not given in full)	0.2 nM
O=C(NC1c2ccccc2C[C@H]1O)[C@H](Cc1ccccc1)C[C@H](O)CN1C(=O)C(Cc2ccncc2)C[C@@H]1Cc1ccccc1 (stereo not given in full)	0.31 nM
C=CC[C@H]1C[C@H](Cc2ccccc2)N(C[C@@H](O)C[C@@H](Cc2ccccc2)C(=O)NC2c3ccccc3C[C@H]2O)C1=O (stereo not given in full)	0.45 nM
CCOC(=O)CNC(=O)Nc1cccc(C[C@H]2C[C@H](Cc3ccccc3)N(C[C@@H](O)C[C@@H](Cc3ccccc3)C(=O)N[C@@H]3c4ccccc4C[C@H]3O)C2=O)c1	0.1 nM
N#Cc1ccc(CC2C[C@H](Cc3ccccc3)N(C[C@@H](O)C[C@@H](Cc3ccccc3)C(=O)NC3c4ccccc4C[C@H]3O)C2=O)cc1 (stereo not given in full)	0.34 nM
COC(=O)c1cccc(CC2C[C@H](Cc3ccccc3)N(C[C@@H](O)C[C@@H](Cc3ccccc3)C(=O)NC3c4ccccc4C[C@H]3O)C2=O)c1 (single isomer, unassigned; diastereomer 1)	0.42 nM
Nc1cccc(CC2C[C@H](Cc3ccccc3)N(C[C@@H](O)C[C@@H](Cc3ccccc3)C(=O)NC3c4ccccc4C[C@H]3O)C2=O)c1 (single isomer, unassigned; diastereomer 1)	0.1 nM
O=C(NC1c2ccccc2C[C@H]1O)[C@H](Cc1ccccc1)C[C@H](O)CN1C(=O)C(Cc2cccnc2)C[C@@H]1Cc1ccccc1 (single isomer, unassigned; diastereomer 2)	14 nM
O=C(NC1c2ccccc2C[C@H]1O)[C@H](Cc1ccccc1)C[C@H](O)CN1C(=O)C(Cc2cccnc2)C[C@@H]1Cc1ccccc1 (stereo in doubt)	0.17 nM

Results, then the molecule that gave them:

Ki	SMILES
0.1 nM	NC(=O)c1cccc(C[C@H]2C[C@H](Cc3ccccc3)N(C[C@@H](O)C[C@@H](Cc3ccccc3)C(=O)N[C@@H]3c4ccccc4C[C@H]3O)C2=O)c1
0.09 nM	NC(=O)Cc1cccc(C[C@H]2C[C@H](Cc3ccccc3)N(C[C@@H](O)C[C@@H](Cc3ccccc3)C(=O)NC3c4ccccc4C[C@H]3O)C2=O)c1 (stereo not given in full)
0.08 nM	N#CCOc1cccc(C[C@H]2C[C@H](Cc3ccccc3)N(C[C@@H](O)C[C@@H](Cc3ccccc3)C(=O)NC3c4ccccc4C[C@H]3O)C2=O)c1 (stereo not given in full)
0.05 nM	NC(=O)c1cccc(C[C@H]2C[C@H](Cc3ccccc3)N(C[C@@H](O)C[C@@H](Cc3ccc(OCCO)cc3)C(=O)N[C@@H]3c4ccccc4C[C@H]3O)C2=O)c1
0.05 nM	N#Cc1cccc(CC2C[C@H](Cc3ccccc3)N(C[C@@H](O)C[C@@H](Cc3ccccc3)C(=O)NC3c4ccccc4C[C@H]3O)C2=O)c1 (single isomer, unassigned; diastereomer 1)
0.05 nM	O=C(NC1c2ccccc2C[C@H]1O)[C@H](Cc1ccccc1)C[C@H](O)CN1C(=O)C(Cc2cccc(O)c2)C[C@@H]1Cc1ccccc1 (single isomer, unassigned; diastereomer 1)

Reference: ChEMBL document CHEMBL1138637, “Discovery of potent pyrrolidone-based HIV-1 protease inhibitors with enhanced drug-like properties” (Bioorg Med Chem Lett, 2004)
